Assay results taken from ChEMBL document CHEMBL2074335, “Cloning and functional characterization of the multidrug resistance-associated protein (MRP1/ABCC1) from the cynomolgus monkey” (Mol Cancer Ther, 2003).

These compounds were tested against Multidrug resistance-associated protein 1 (Homo sapiens, UniProt P33527) (assay: TP_TRANSPORTER: drug resistance in MRP1-expressing PEAKSTABEL cells). Conditions: peakstable.
Assay type: functional, cell-based

Multidrug resistance-associated protein 1, sequence (P33527 whole entry): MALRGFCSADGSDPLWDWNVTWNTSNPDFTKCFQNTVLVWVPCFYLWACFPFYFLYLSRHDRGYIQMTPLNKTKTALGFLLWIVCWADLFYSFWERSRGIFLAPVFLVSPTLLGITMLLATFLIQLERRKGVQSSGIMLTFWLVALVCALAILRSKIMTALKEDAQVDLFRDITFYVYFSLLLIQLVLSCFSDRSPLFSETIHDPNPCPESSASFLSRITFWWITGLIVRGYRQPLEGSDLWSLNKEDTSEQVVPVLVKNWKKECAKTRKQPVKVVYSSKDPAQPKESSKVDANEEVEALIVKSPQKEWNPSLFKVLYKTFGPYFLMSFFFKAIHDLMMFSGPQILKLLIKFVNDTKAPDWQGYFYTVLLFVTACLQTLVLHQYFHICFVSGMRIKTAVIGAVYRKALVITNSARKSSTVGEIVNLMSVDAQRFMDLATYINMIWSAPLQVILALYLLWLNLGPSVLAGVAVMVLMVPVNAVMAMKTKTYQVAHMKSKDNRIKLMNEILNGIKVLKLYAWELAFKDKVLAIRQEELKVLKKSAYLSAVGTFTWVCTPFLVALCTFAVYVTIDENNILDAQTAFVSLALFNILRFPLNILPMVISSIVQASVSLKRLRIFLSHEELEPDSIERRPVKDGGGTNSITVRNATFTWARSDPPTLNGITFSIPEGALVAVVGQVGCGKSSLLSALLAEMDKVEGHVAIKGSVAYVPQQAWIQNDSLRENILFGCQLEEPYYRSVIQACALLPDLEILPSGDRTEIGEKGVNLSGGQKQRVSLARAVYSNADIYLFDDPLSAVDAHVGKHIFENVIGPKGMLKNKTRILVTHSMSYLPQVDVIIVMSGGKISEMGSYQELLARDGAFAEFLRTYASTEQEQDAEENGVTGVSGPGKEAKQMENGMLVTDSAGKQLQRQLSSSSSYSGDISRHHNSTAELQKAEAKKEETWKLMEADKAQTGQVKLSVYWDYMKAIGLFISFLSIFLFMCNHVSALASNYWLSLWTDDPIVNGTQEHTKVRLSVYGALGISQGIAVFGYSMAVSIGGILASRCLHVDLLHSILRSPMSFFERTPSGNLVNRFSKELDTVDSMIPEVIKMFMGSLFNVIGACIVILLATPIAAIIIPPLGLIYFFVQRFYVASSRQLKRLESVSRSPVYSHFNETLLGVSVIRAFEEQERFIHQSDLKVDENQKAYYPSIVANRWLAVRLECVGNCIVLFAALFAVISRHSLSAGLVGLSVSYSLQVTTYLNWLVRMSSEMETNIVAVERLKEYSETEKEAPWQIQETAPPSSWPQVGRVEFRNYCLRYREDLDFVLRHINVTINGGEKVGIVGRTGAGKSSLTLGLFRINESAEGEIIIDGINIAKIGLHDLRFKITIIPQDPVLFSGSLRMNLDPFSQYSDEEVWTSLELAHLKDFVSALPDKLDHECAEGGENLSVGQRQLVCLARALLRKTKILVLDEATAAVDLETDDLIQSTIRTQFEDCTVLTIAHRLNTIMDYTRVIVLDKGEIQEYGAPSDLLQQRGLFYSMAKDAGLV

Structure (SMILES)	Activity
COc1cc(NC(=O)Cc2cccc(-n3c(=O)c4c(C)onc4c4c(Cl)cccc43)c2)cc(OC)c1OC	inhibitor []
COc1cccc2c1C(=O)c1c(O)c3c(c(O)c1C2=O)C[C@@](O)(C(=O)CO)C[C@@H]3O[C@H]1C[C@H](N)[C@H](O)[C@H](C)O1 [DOXORUBICIN]	substrate []
COc1cccc2c1C(=O)c1c(O)c3c(c(O)c1C2=O)C[C@@](O)(C(=O)CO)C[C@@H]3O[C@H]1C[C@H](N)[C@@H](O)[C@H](C)O1 [EPIRUBICIN]	substrate []

The remaining lines, values ahead:

Activity	Structure (SMILES)
substrate []	CC[C@]1(O)C[C@H]2CN(CCc3c([nH]c4ccccc34)[C@@](C(=O)OC)(c3cc4c(cc3OC)N(C=O)[C@H]3[C@@](O)(C(=O)OC)[C@H](OC(C)=O)[C@]5(CC)C=CCN6CC[C@]43[C@@H]65)C2)C1 [VINCRISTINE]
substrate []	COc1cc([C@@H]2c3cc4c(cc3[C@@H](O[C@@H]3O[C@@H]5CO[C@@H](C)O[C@H]5[C@H](O)[C@H]3O)[C@H]3COC(=O)[C@H]23)OCO4)cc(OC)c1O [ETOPOSIDE]
